# Assay results from patent publication US11155560B2, “Substituted pyrazolo[1,5-a]pyrimidines for modulating CDK9 activity” (Kronos Bio, Inc., priority 2018, dated 2021).
# Molecular target: T1, CDK9/cyclin T1 (Homo sapiens, UniProt P50750)
# Test: CDK9/cyclin T1 inhibition, radiometric assay
# Format: biochemical
# Details: radiometric assay, reaction time 60 minutes, 10 μM ATP, 10-dose IC50; compounds 1-34 and control Staurosporine; read-out: CDK9/cyclin T1 Potency Grade
# Protocol: Exemplary compounds of the invention (1-34) were tested for inhibition of CDK9/cyclin T1. […] Reactions were carried out at 10 μM ATP. Data was normalized to positive and negative controls and curve fits were executed with GraphPad software and were performed where the enzyme activities at the highest concentration of compounds were less than 65%.
# T1 sequence (P50750 whole entry): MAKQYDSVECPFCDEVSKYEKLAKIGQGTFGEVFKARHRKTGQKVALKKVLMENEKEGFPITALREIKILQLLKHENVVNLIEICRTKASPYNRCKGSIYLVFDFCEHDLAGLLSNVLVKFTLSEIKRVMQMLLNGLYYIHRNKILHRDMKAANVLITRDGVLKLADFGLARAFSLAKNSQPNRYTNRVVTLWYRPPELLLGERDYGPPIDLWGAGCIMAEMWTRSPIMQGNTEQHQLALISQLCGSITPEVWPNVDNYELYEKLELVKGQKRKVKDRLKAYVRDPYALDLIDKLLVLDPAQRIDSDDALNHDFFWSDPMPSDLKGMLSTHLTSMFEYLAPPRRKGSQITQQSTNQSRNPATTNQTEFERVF
# T1 sequence (O60563 whole entry partner): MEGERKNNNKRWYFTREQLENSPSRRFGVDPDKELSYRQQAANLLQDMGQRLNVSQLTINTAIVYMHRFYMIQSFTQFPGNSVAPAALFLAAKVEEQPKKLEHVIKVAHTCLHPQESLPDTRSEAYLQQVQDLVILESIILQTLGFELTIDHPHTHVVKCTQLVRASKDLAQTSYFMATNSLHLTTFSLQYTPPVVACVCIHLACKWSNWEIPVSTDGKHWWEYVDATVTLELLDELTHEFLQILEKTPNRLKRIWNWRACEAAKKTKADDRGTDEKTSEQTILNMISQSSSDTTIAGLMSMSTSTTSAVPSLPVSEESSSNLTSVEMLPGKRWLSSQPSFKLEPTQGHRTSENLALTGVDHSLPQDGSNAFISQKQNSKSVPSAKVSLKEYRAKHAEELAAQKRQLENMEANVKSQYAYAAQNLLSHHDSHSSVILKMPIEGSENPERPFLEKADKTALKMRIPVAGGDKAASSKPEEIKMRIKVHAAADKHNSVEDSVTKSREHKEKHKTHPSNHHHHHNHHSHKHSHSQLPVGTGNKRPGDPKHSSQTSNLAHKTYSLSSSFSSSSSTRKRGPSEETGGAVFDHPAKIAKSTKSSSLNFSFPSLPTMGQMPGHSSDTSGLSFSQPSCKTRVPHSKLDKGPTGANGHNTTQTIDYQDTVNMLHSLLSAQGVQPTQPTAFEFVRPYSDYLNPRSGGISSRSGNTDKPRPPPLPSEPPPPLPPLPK
row,SMILES,IC50 [nM]
1,"N[C@@H]1CC[C@@H](Nc2cc(C3CC3)nc3ccnn23)C1 [Compound 32, [(1R,3R)-3-[(5-cycloproylpyrazolo[1,5-a]pyrimidin-7-yl)amino]cyclopentyl]ammonium; 2,2,2-trifluoroacetate]",1 to 500

# Same assay, conditions: read-out: CDK9/cyclin T1 Potency Grade
row,SMILES,IC50 [nM]
1,"Cc1cc(N[C@H]2CC[C@@H](N)C2)n2nccc2n1 [Compound 12, [(1R,3S)-3-[(5-methylpyrazolo[1,5-a]pyrimidin-4-ium-7-yl)amino]cyclopentyl]ammonium dichloride]",501 to 1000
2,"CC(C)c1cc(NC2CCCCC2)n2nccc2n1 [Compound 29, N-cyclohexyl-5-isopropyl-pyrazolo[1,5-a]pyrimidin-7-amine]",1 to 500
3,"c1cc2nc(C3CCCC3)cc(NC3CCCC3)n2n1 [Compound 5, N,5-dicyclopentylpyrazolo[1,5-a]pyrimidin-7-amine]",1 to 500
4,"Cc1cc(NC2CCCC2)n2nccc2n1 [Compound 1, N-cyclopentyl-5-methyl-pyrazolo[1,5-a]pyrimidin-7-amine]",> 1000
5,"CCc1cc(N[C@H]2CC[C@H](N)C2)n2nccc2n1 [Compound 28, (1S,3S)-N3-(5-ethylpyrazolo[1,5-a]pyrimidin-7-yl)cyclopentane-1,3-diamine]",1 to 500
6,"CCC(C)c1cc(NC2CCCC2)n2nccc2n1 (stereo not shown) [Compound 3, N-cyclopentyl-5-sec-butyl-pyrazolo[1,5-a]pyrimidin-7-amine]",1 to 500
7,"CC(C)c1cc(N[C@@H]2CCOC2)n2nccc2n1 [Compound 30, 5-isopropyl-N-[(3R)-tetrahydrofuran-3-yl]pyrazolo[1,5-a]pyrimidin-7-amine]",> 1000
8,"CCC(C)c1cc(N[C@H]2C[C@H](N)C2)n2nccc2n1 (stereo partly shown) [Compound 19, N1-(5-sec-butylpyrazolo[1,5-a]pyrimidin-7-yl)cyclobutane-1,3-diamine]",1 to 500
9,"Cc1cc(N[C@@H]2CC[C@H](N)C2)n2nccc2n1 [Compound 10, [(1S,3R)-3-[(5-methylpyrazolo[1,5-a]pyrimidin-4-ium-7-yl)amino]cyclopentyl]ammonium dichloride]",> 1000
10,"Cc1cc(N[C@H]2C[C@H](N)C2)n2nccc2n1 [Compound 11, [3-[(5-methylpyrazolo[1,5-a]pyrimidin-4-ium-7-yl)amino]cyclobutyl]ammonium dichloride]",501 to 1000
11,"N[C@@H]1CC[C@H](Nc2cc(C3CCCC3)nc3ccnn23)C1 [Compound 23, (1R,3S)—N3-(5-cyclopentylpyrazolo[1,5-a]pyrimidin-7-yl)cyclopentane-1,3-diamine]",1 to 500
12,"N[C@H]1CC[C@@H](Nc2cc(C3CCCC3)nc3ccnn23)C1 [Compound 15, (1 S,3R)—N3-(5-cyclopentylpyrazolo[1,5-a]pyrimidin-7-yl)cyclopentane-1,3-diamine]",1 to 500
13,"CC(=O)Nc1cc(N[C@@H]2CC[C@@H](N)C2)n2ncc(Cl)c2n1 [Compound 33, [(1R,3R)-3-[(5-acetamido-3-chloro-pyrazolo[1,5-a]pyrimidin-7-yl)amino]cyclopentyl]ammonium; 2,2,2-trifluoroacetate]",1 to 500
14,"CC(=O)Nc1cc(N[C@@H]2CC[C@@H](N)C2)n2nccc2n1 [Compound 34, [(1R,3R)-3-[(5-acetamidopyrazolo[1,5-a]pyrimidin-7-yl)amino]cyclopentyl]ammonium; 2,2,2-trifluoroacetate]",> 1000
15,"N[C@H]1CC[C@H](Nc2cc(C3CCCC3)nc3ccnn23)CC1 [Compound 8, [4-[(5-cyclopentylpyrazolo[1,5-a]pyrimidin-4-ium-7-yl)amino]cyclohexyl]ammonium dichloride]",1 to 500
16,"Cc1cc(N[C@H]2CC[C@H](N)CC2)n2nccc2n1 [Compound 4, [4-[(5-methylpyrazolo[1,5-a]pyrimidin-4-ium-7-yl)amino]cyclohexyl]ammonium dichloride]",501 to 1000
17,"N[C@H]1C[C@H](Nc2cc(C3CCCC3)nc3ccnn23)C1 [Compound 20, N1-(5-cyclopentylpyrazolo[1,5-a]pyrimidin-7-yl)cyclobutane-1,3-diamine]",1 to 500
18,"CC(C)c1cc(NC2CCCC2)n2nccc2n1 [Compound 2, N-cyclopentyl-5-isopropyl-pyrazolo[1,5-a]pyrimidin-7-amine]",1 to 500
19,"Cc1cc(N[C@H]2CC[C@H](N)C2)n2nccc2n1 [Compound 24, (1S,3S)—N3-(5-methylpyrazolo[1,5-a]pyrimidin-7-yl)cyclopentane-1,3-diamine]",501 to 1000
20,"CCc1cc(N[C@@H]2CC[C@@H](N)C2)n2nccc2n1 [Compound 25, (1R,3R)—N3-(5-ethylpyrazolo[1,5-a]pyrimidin-7-yl)cyclopentane-1,3-diamine]",501 to 1000
21,"CCC(C)c1cc(N[C@H]2CC[C@H](N)CC2)n2nccc2n1 (stereo partly shown) [Compound 7, [4-[(5-sec-butylpyrazolo[1,5-a]pyrimidin-4-ium-7-yl)amino]cyclohexyl]ammonium dichloride]",1 to 500
22,"N[C@H]1CC[C@H](Nc2cc(C3CCCC3)nc3ccnn23)C1 [Compound 9, [(1S,3S)-3-[(5-cyclopentylpyrazolo[1,5-a]pyrimidin-4-ium-7-yl)amino]cyclopentyl]ammonium dichloride]",1 to 500

# Molecular target: T1, CDK9/cyclin T1
# Test: CDK9/cyclin T1 kinase inhibition, LANCE assay
# Format: biochemical
# Details: reaction time 60 minutes, 10 μM ATP, 10-dose IC50, compounds 35-126 (127-208 listed, method not stated), read-out: CDK9/cyclin T1 Potency Grade
# Protocol: Exemplary compounds of the invention (35-126) were tested for inhibition of CDK9/cyclin T1 kinase. Using a LANCE assay (reaction time 60 minutes), the compounds were tested in 10-dose IC50 duplicate mode with a 3-fold serial dilution starting at 4.3 μM. […] Reactions were carried out at 10 μM ATP. Data was normalized to positive and negative controls and curve fits were analyzed with XLFIT5 as % inhibition vs. log [compound concentration] using a 4-parameter logistic model205. Fit=(A+((B−A)/(1+((C/x)^D)))); Res =(y-fit).
row,SMILES,IC50 [nM]
1,N[C@H]1CC[C@H](Nc2cc(-c3cccc(F)c3)nc3ccnn23)C1 [Compound 111],1 to 500
2,COCCNc1cc(N[C@H]2CC[C@H](N)C2)n2nccc2n1 [Compound 179],501 to 1000
3,COc1cc(-c2cc(N[C@H]3CC[C@H](N)C3)n3nccc3n2)ccn1 [Compound 101],1 to 500
4,COC(=O)N[C@@H]1CC[C@@H](Nc2cc(C(C)C)nc3ccnn23)C1 [Compound 145],1 to 500
5,Cc1cnn2c(N[C@@H]3CC[C@@H](NC(=O)OCc4ccccc4)C3)cc(C(C)C)nc12 [Compound 87],1 to 500
6,CCOc1cc(N[C@H]2CC[C@H](N)C2)n2nccc2n1 [Compound 182],501 to 1000
7,O=CN[C@@H]1CC[C@@H](Nc2cc(C3CC3)nc3ccnn23)C1 [Compound 51],1 to 500
8,CCNc1cc(N[C@H]2CC[C@H](N)C2)n2nccc2n1 [Compound 98],1 to 500
9,CC(C)c1cc(N[C@H]2CC[C@H](N)C2)n2ncc(C#N)c2n1 [Compound 155],1 to 500
10,CN(CCO)c1cc(N[C@H]2CC[C@H](N)C2)n2nccc2n1 [Compound 90],1 to 500
11,Cc1cc(C)cc(-c2cc(N[C@H]3CC[C@H](N)C3)n3nccc3n2)c1 [Compound 105],1 to 500
12,COCCNc1cc(N[C@H]2CC[C@H](N)C2)n2nccc2n1 [Compound 88],501 to 1000
13,CC(C)N(C)c1cc(N[C@H]2CC[C@H](N)C2)n2nccc2n1 [Compound 177],1 to 500
14,N[C@H]1CC[C@H](Nc2cc(-c3cccc(Cl)c3)nc3ccnn23)C1 [Compound 166],1 to 500
15,N[C@H]1CC[C@H](Nc2cc(-c3ccc4c(c3)OCO4)nc3c(Cl)cnn23)C1 [Compound 104],1 to 500
16,N[C@H]1CC[C@H](Nc2cc(-c3cccc4ccccc34)nc3ccnn23)C1 [Compound 172],1 to 500
17,Cc1cccc(-c2cc(N[C@H]3CC[C@H](N)C3)n3nccc3n2)c1 [Compound 164],1 to 500
18,O=C(N[C@H]1CC[C@H](Nc2cc(C3CC3)nc3ccnn23)C1)OCc1ccccc1 [Compound 175],> 1000

row,SMILES,IC50 [nM]
1,N[C@H]1CC[C@H](Nc2cc(C3=CCCOC3)nc3ccnn23)C1 [Compound 112],1 to 500
2,Cc1cc(C)cc(-c2cc(N[C@H]3CC[C@H](N)C3)n3nccc3n2)c1 [Compound 196],1 to 500
3,N[C@H]1CC[C@H](Nc2cc(C#CC3CC3)nc3ccnn23)C1 [Compound 120],1 to 500
4,N[C@H]1CC[C@H](Nc2cc(-c3cc(Cl)cc(Cl)c3)nc3ccnn23)C1 [Compound 173],1 to 500
5,CC(C)c1cccc(-c2cc(N[C@H]3CC[C@H](N)C3)n3nccc3n2)c1 [Compound 121],1 to 500
6,N[C@H]1CC[C@H](Nc2cc(-c3ccc4c(c3)OCO4)nc3c(Cl)cnn23)C1 [Compound 195],1 to 500
7,CN/C(=N/C#N)N[C@@H]1CC[C@@H](Nc2cc(C(C)C)nc3ccnn23)C1 [Compound 154],1 to 500
8,N[C@H]1CC[C@H](Nc2cc(Nc3ccc4ccccc4c3)nc3ccnn23)C1 [Compound 71],1 to 500
9,CN(Cc1ccccc1)c1cc(N[C@H]2CC[C@H](N)C2)n2nccc2n1 [Compound 188],1 to 500
10,N[C@H]1CC[C@H](Nc2cc(-c3cccc(Cl)c3)nc3ccnn23)C1 [Compound 75],1 to 500
11,CN1CCN(c2cc(N[C@H]3CC[C@H](N)C3)n3nccc3n2)CC1 [Compound 99],> 1000
12,CC(C)c1cc(N[C@@H]2CC[C@@H](NC(=N)N)C2)n2nccc2n1 [Compound 157],1 to 500
13,N[C@@H]1CC[C@@H](Nc2cc(C3CC3)nc3ccnn23)C1 [Compound 43],1 to 500
14,N[C@H]1CC[C@H](Nc2cc(C3=CCCCC3)nc3ccnn23)C1 [Compound 109],1 to 500
15,COCCN[C@@H]1CC[C@@H](Nc2cc(C(C)C)nc3ccnn23)C1 [Compound 150],1 to 500
16,CC(C)c1cc(N[C@@H]2CC[C@@H](N(O)C(N)=O)C2)n2nccc2n1 [Compound 60],1 to 500
17,CCc1cc(N[C@H]2CC[C@H](N)C2)n2nccc2n1 [Compound 138],1 to 500
